# Source: PMC9804781, “Identification of a Novel Pseudo‐Natural Product Type IV IDO1 Inhibitor Chemotype” (Angewandte Chemie (International Ed. in English), 2022)
# “And” between values parts separate entries of the source, which are not always exact repeats. Equal values may be shown once. Read-outs that look alike come from different tables or passages of the source.
# What was measured:
# His-tagged TDO = target: T1, His-tagged TDO (Homo sapiens, UniProt P48775); assay: TDO Activity Assay; format: biochemical; conditions: 50 µM; 120 min at 37 °C
# T1 construct: His; purchased BPS Bioscience 72035 (kit)
# Description: Inhibition of tryptophan 2,3-dioxygenase (TDO) was tested using the Universal IDO1/IDO2/TDO Inhibitor Screening Assay Kit (cat# 72035, BPS Bioscience, US). 500 ng His-tagged TDO in TDO Assay Buffer was incubated with Reaction Solution and 50 µM Test Inhibitor (0.5% (v/v) DMSO) for 120 min at 37°C with slow shaking in the dark. Afterwards, absorbance at 321 nm was recorded on the Spark® Multimode Microplate Reader (Tecan, AT), all values were subtracted by the background and normalized to the DMSO control. […]
# (v/v) component 2 in component 1) and 50 µM Test Inhibitor (0.5% (v/v) DMSO) for 90 min at 30°C with slow shaking in the dark prior to initiation of the reaction by addition of 20% (v/v) IDO2 Substrate. Samples were incubated for 120 min at 30°C with slow shaking in the dark. […]
# IDO1 promoter = IDO1 promoter reporter gene assay in HEK293T cells; format: cell-based; conditions: IFN-γ, 48 h
# Description: GraphPad Prism 9.0 (GraphPad Software, Inc, US) to generate dose-response curves and obtain […]
# IDO1 promoter reporter gene assay
# HEK293T cells (25,000 cells/well) were reverse-transfected with pXPG-IDO1[16] (4 µg/96-well plate, kindly provided by Gina M. Doody, Leeds, UK) and pRL-TK (300 ng/96-well plate, Promega, US) using Lipofectamine™ 2000 (Invitrogen, USA) pri or to incubation for 24 h. Afterwards, cells were treated with 50 ng/mL IFN-γ and the compounds for 48 h. Luminescence generated by the Fluc reporter and the control reporter Rluc was measured using the Dual-Glo ® Luciferase Assay System (Promega, US) on the Spark® Multimode Microplate Reader (Tecan, AT). To determine the IDO1 promoter activity, Fluc signals were divided by Rluc signals and normalized to the values of the DMSO control. Data analysis was performed using a non-linear regression curve fit and […]
# BxPC-3 cells (30,000 cells/well) were seeded in 96-well plates in Trp-free RPMI 1640 medium and incubated for 48 h prior addition of 50 ng/mL IFN-γ. […]
# The supernatant was transferred to a new plate, trichloroacetic acid was added to a final concentration of 7% (v/v) and plates were incubated for 15 min at room temperature. Samples were centrifuged for 10 min at 1800 x g and L-Trp was quantified by HPLC-MS/MS using the LTQ Velos Pro and Dionex HPLC (Thermo Fisher Scientific, US). […]
# rhIDO1 (holo-IDO1) = target: T2, rhIDO1 (holo-IDO1) (Homo sapiens, UniProt P14902); assay: nanoDSF thermal denaturation of IDO1; format: binding
# T2 construct: His; made in house; host or cells: E. coli
# Description: 11 µM rhIDO1 was incubated with compounds at indicated concentrations for 60 min at 37°C in 50 mM potassium phosphate buffer (16.9 mM K2HPO4, 33.1 mM, KH2PO4, pH 6.5). The thermal protein stability from 20°C to 90°C (1°C/min) was measured by means of the intrinsic tryptophan/tyrosine fluorescence using the Prometheus™ NT.48 (NanoTemper® Technologies, DE). Melting scans, first derivatives of melting scans and melting temperatures were analyzed using PR.ThermControl software (NanoTemper® Technologies, DE). Binding affinities were determined by plotting the melting temperature against the ligand concentration and fitting with a single site ligand binding function using GraphPad Prism 9.0 (GraphPad Software, Inc, US). The isothermal analysis of the nanoDSF data was performed with FoldAffinity[1] with an assumed heat capacity change ΔCp of zero. […]
# T2 sequence (P14902 whole entry): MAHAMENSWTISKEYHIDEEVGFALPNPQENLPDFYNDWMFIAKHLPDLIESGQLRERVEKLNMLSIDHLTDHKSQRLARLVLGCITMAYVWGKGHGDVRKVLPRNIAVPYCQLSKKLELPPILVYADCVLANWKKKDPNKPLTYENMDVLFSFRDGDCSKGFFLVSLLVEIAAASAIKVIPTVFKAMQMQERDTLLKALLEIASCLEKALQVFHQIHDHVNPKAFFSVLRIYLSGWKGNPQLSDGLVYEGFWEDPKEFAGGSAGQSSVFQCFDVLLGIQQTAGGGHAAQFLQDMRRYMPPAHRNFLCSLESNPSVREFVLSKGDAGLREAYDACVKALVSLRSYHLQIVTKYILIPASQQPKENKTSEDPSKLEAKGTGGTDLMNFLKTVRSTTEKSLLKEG
# T1 sequence (P48775 whole entry): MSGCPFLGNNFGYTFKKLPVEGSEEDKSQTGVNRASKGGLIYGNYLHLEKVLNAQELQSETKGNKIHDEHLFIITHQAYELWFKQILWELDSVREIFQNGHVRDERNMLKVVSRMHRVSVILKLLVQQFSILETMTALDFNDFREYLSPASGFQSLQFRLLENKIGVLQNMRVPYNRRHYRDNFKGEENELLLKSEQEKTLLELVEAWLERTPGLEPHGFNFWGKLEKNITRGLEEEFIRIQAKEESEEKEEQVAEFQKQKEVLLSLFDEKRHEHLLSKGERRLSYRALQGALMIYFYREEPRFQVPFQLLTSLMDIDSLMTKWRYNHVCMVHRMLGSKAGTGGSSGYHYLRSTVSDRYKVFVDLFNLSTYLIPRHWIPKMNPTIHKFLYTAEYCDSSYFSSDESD
structure (smiles),measurement,setting,value
CCOC(=O)C1=CC[C@](C(=O)OC)(c2cc3ccccc3n2C)N(S(=O)(=O)c2ccc(C)cc2)[C@@H]1C(=O)OC(C)(C)C [Compound 3d],inhibition of TDO (result in words),His-tagged TDO,did not inhibit
same,expression of the Fluc reporter under IDO1 promoter,IDO1 promoter,did not reduce the expression of the reporter
same,Kd,"rhIDO1 (holo-IDO1); 48 °C, FoldAffinity, first replicate, read-out: KD, 48°C (isothermal analysis, single replicate)",11.6 nM
same,Kd,"rhIDO1 (holo-IDO1); 49 °C, FoldAffinity, read-out: KD, 49°C (isothermal analysis, single replicates)",24.7 nM and 26 nM
same,Kd,"rhIDO1 (holo-IDO1); 50 °C, FoldAffinity, read-out: KD, 50°C (isothermal analysis, single replicates)",48.4 nM and 34.7 nM and 24.8 nM
same,Kd,"rhIDO1 (holo-IDO1); 51 °C, FoldAffinity, read-out: KD, 51°C (isothermal analysis, single replicates)",54.4 nM and 41.3 nM and 33.6 nM
same,Kd,"rhIDO1 (holo-IDO1); at 49 °C, read-out: KD (isothermal analysis of nanoDSF data)",20.7 ± 0.01 nM
same,Kd,"rhIDO1 (holo-IDO1); from Tm vs concentration, mean±SD, n=3, read-out: apparent dissociation constant KD,app",1100 nM and 1090 nM
same,shift of melting temperature Tm (nanoDSF),"rhIDO1 (holo-IDO1); holo-IDO1, 60 min at 37 °C",7.7±0.3 °C
same,melting temperature Tm of IDO1 with compound,"rhIDO1 (holo-IDO1); holo-IDO1 treated with compound, DMSO 45.7±0.2 °C",53.5±0.2 °C
